In PMC3834731 (International journal of antimicrobial agents, 2013):
Marks after values point to notes of the source that are not given here.

Legend:
Brucella suis 1330 = format: cell-based
[1] = test system: B. suis in J774A.1 murine macrophage-like cells; format: cell-based, Brucella suis
Brucella melitensis 16M = format: cell-based
Brucella abortus 2308 = format: cell-based

Substance	Log CFU/100 μL/well (Brucella suis 1330)	Log reduction (Brucella suis 1330)	inhibition of growth of B. suis in culture (in words) (Brucella suis 1330)	Log CFU [1] [Log CFU]	Log reduction [1]	inhibition of intracellular B. suis (in words) [1]	Log CFU/mL (Brucella suis 1330) [Log CFU/mL]	effectiveness against B. melitensis 16M (in words) (Brucella melitensis 16M)	effectiveness against B. abortus 2308 (in words) (Brucella abortus 2308)
H-KFFKFFKFFK-O-catactcttcct-NH2 [Anti-lacZ, reference compound]	2.83 ± 0.13 Log CFU/100 μL/well	0.23	did not inhibit the growth	3.45 ± 0.31	+0.17	–	–	–	–
H-KFFKFFKFFK-O-catatcgtcgga-NH2 [gyrA]	3.92 ± 0.06 Log CFU/100 μL/well	0.23	not in Brucella cultures	2.47 ± 0.51	0.81 ^*	showed significant inhibition	–	–	–
H-KFFKFFKFFK-O-catcgtcgctc –NH2 [rpoB]	0 ^* Log CFU/100 μL/well	–	significantly inhibited the growth	–	–	–	0	–	–
H-KFFKFFKFFK-O-cattacagatt-NH2 [dnaG]	2.91 ± 0.02 Log CFU/100 μL/well	0.15	not in Brucella cultures	1.78 ± 0.56	1.50 ^*	showed significant inhibition	–	–	–
H-KFFKFFKFFK-O-cattgtgtcgc-NH2 [tsf]	1.02 ± 0.92 Log CFU/100 μL/well	2.04 ^*	significantly inhibited the growth	–	–	–	–	–	–
H-KFFKFFKFFK-O-catttttcgtct-NH2 [asd]	3.27 ± 0.09 Log CFU/100 μL/well	–	not in Brucella cultures	1.84 ± 0.50	1.44 ^*	showed significant inhibition	–	–	–
H-KFFKFFKFFK-O-ctcatgtcgg-NH2 [acpP]	3.05 ± 0.10 Log CFU/100 μL/well	0.01	–	3.37 ± 0.18	+0.09	–	–	–	–
H-KFFKFFKFFK-O-gctcatttcgc-NH2 [kdtA]	1.56 ± 1.10 Log CFU/100 μL/well	1.50 ^*	significantly inhibited the growth	–	–	–	–	–	–
H-KFFKFFKFFK-O-ttcatgcctgt-NH2 [polA]	0.54 ± 0.09 Log CFU/100 μL/well	–	significantly inhibited the growth	2.27 ± 0.69	1.01 ^*	showed significant inhibition	–	effective	effective
